Test results as given in ChEMBL document CHEMBL1201862, “PubChem BioAssay data set” (2004).
One block for each compound: values may come before it. Activity calls are given as the source filed them.

Experiments:
[1] = target: T1, Dual specificity protein phosphatase 6 (Rattus norvegicus, UniProt Q64346)
T1 sequence (Q64346 whole entry): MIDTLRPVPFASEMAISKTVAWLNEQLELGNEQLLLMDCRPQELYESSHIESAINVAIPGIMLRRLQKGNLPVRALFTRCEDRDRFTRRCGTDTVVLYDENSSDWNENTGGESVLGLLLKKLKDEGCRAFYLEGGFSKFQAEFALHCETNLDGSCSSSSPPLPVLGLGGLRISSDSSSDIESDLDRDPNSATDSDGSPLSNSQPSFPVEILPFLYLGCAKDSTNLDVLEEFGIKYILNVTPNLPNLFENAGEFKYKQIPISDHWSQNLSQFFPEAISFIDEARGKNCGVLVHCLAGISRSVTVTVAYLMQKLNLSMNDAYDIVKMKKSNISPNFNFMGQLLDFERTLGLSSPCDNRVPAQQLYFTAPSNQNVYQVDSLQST

[2] = target: T2, Tyrosine-protein phosphatase non-receptor type 7 (Homo sapiens, UniProt P35236); type: functional
T2 sequence (P35236 whole entry): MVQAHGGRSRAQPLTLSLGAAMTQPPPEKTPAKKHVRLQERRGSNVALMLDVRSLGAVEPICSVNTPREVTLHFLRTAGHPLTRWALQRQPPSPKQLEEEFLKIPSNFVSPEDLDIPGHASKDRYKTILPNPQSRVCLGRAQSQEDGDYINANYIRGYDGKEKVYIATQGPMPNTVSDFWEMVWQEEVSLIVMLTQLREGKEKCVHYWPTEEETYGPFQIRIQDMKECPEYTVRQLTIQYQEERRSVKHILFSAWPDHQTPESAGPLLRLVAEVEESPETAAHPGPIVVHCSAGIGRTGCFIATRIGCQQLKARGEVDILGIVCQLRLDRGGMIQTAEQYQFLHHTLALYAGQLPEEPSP

[3] = target: T1, Dual specificity protein phosphatase 6; type: functional
[4] = target: Glyceraldehyde-3-phosphate dehydrogenase (Homo sapiens, UniProt P04406)
Chain of Glyceraldehyde-3-phosphate dehydrogenase (P04406 whole entry, the tested form may be a part): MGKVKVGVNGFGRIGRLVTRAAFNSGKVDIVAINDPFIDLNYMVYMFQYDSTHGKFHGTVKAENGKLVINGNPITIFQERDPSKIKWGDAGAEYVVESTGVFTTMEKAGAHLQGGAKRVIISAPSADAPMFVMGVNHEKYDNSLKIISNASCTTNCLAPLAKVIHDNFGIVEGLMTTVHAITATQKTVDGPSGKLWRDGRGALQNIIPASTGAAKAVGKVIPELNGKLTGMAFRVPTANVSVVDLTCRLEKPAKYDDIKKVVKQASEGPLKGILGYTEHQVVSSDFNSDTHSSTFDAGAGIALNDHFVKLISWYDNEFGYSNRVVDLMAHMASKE

Hexokinase-1 = target: T3, Hexokinase-1 (Homo sapiens, UniProt P19367); assay: SAR analysis of small molecule inhibitors of hexokinase domain containing I (HKDC1) in the hexokinase 1 selectivity assay. [Related pubchem assays (depositor defined):AID493160, AID493190]; type: functional
T3 sequence (P19367 whole entry): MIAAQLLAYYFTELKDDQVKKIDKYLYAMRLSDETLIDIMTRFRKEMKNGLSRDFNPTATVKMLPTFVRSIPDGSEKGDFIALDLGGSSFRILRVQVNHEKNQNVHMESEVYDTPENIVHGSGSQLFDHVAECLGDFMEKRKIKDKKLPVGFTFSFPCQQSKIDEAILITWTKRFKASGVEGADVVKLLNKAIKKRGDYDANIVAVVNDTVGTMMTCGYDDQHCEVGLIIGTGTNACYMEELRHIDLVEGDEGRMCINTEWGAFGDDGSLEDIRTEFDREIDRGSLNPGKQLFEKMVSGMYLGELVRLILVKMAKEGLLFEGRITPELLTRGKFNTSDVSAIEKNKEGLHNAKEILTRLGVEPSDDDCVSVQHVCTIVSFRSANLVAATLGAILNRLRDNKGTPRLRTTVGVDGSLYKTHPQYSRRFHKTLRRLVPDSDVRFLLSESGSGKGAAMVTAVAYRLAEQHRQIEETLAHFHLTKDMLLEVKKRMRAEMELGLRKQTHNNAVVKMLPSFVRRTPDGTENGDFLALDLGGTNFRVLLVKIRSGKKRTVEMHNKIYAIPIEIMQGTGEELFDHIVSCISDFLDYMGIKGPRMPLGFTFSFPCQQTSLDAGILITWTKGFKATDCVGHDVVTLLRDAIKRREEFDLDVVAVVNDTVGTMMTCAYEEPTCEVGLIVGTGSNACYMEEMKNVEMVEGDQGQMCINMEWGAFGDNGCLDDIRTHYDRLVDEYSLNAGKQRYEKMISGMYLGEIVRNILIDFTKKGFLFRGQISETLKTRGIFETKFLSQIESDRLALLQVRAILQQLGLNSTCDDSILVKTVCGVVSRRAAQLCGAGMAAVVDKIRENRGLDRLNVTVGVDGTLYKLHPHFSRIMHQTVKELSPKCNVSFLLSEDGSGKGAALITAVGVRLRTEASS

Hexokinase HKDC1 = target: T4, Hexokinase HKDC1 (Homo sapiens, UniProt Q2TB90); assay: SAR analysis of small molecule inhibitors of hexokinase domain containing I (HKDC1). [Related pubchem assays (depositor defined):AID493160, AID493190]; type: functional
T4 sequence (Q2TB90 whole entry): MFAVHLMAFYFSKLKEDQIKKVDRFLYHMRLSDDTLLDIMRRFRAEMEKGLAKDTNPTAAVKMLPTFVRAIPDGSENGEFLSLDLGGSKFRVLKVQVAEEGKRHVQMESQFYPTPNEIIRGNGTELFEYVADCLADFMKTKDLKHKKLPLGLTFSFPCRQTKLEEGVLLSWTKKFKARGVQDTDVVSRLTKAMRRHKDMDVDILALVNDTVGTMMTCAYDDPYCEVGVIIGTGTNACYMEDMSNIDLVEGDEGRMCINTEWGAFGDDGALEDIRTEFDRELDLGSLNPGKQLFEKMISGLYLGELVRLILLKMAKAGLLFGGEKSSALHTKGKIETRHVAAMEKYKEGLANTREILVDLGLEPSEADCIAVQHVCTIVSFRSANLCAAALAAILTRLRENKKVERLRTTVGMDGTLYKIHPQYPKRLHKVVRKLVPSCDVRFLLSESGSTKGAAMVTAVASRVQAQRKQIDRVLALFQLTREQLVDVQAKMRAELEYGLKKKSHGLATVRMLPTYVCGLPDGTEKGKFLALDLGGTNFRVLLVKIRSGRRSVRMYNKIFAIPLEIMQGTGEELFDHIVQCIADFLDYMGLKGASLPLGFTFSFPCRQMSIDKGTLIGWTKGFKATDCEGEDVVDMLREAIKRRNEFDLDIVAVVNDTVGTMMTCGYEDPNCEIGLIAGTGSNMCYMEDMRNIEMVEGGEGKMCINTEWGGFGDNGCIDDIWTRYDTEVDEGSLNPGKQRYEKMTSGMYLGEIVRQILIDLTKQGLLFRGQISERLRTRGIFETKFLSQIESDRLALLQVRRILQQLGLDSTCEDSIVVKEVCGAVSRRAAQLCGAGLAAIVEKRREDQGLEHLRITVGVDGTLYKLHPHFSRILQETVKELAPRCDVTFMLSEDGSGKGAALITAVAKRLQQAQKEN

INS1 [5] = assay: protection of INS-1E cells from cytokine death, dose response, ATP luminescence, dry powder (AID 488844); type: functional, cell-based; details: Rattus norvegicus
INS1 [6] = assay: inhibitors of cytokine-induced nitrite release, dose response, cell-based, Griess absorbance, INS-1E, dry powder, set 2 (AID 488868); type: functional; details: Rattus norvegicus
[7] = inhibitors of cytokine-induced nitrite release, dose response, cell-based, Griess absorbance, INS-1E, dry powder, set 3 (AID 488870); type: functional; details: Rattus norvegicus
Jurkat = assay: antigen receptor-induced NF-kB inhibitors, dose response, Jurkat, luciferase reporter, luminescence, B- and T-cell (AID 489004); type: functional, cell-based; details: Homo sapiens;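 also: NF-kB luciferase reporter Jurkat cells stimulated with PMA plus ionomycin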
cells = type: functional, cell-based; details: HEK-CNG
[8] = cytotoxicity in HEK-293T NF-kB-Luc cells, dose response, cytotoxicity control for B/T-cell NF-kB inhibitor project, cell-based, uHTS hits (AID 489019); type: functional;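 also: IC50 reflects cytotoxicity as loss of cell viability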
Galanin receptor type 3 = Galanin receptor type 3 (Homo sapiens, UniProt O60755); assay: Fluorescence-based cell-based primary high throughput dose response assay to identify antagonists of the Galanin Receptor 3 (GalR3).; type: functional
Chain of Galanin receptor type 3 (O60755 whole entry): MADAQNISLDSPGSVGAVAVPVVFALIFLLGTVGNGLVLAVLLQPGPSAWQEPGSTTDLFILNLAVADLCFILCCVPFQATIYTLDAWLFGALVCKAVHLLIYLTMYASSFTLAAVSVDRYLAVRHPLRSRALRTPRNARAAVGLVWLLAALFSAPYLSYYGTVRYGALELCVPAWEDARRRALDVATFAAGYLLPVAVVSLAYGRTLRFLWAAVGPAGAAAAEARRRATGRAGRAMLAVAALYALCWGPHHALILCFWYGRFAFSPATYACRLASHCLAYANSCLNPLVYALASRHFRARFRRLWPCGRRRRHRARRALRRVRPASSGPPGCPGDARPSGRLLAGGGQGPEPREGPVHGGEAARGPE

HEK293 = assay: inhibitors of LMP1-driven NF-kB reporter, dose response, cell-based, HEK293, luciferase, cherry-pick (AID 588343); type: functional; details: Homo sapiens
[9] = target: Latent membrane protein 1 (Human herpesvirus 4 (strain B95-8), UniProt P03230); assay: TES1-eGFP NF-kB reporter inhibition versus Tet-On dsRED, dose response, selectivity assay for LMP1 NF-kB inhibitor project, imaging, HEK293T, dual-color eGFP/dsRED, cherry-picks (AID 588398); type: functional, cell-based
Chain of Latent membrane protein 1 (P03230 whole entry): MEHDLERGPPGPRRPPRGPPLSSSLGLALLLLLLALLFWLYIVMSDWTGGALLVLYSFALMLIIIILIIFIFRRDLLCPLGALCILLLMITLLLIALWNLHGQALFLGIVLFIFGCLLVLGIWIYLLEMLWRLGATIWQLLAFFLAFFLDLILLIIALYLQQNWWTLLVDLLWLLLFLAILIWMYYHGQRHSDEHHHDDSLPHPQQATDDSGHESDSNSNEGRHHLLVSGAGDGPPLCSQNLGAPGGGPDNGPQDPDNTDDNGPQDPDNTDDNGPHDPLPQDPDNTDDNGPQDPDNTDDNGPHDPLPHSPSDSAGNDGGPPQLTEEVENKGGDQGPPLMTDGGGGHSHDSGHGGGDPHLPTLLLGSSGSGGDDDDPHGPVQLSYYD
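For EC50 in this document: target is galanin receptor GalR3 read with a cAMP biosensor in HEK293 cells.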

IC50 [1]: > 100 µM (inactive) | IC50 [2]: > 100 µM (not active) | IC50 [3]: > 100 µM (inactive) | IC50 [4]: > 100 µM (not active)
Compound: COc1ccc(-n2c(=O)nc(NCCc3cccc(Cl)c3)[nH]c2=O)cc1

IC50 (Hexokinase-1): > 80 µM (inactive) | IC50 (Hexokinase HKDC1): > 80 µM (inactive)
Compound: O=c1c2ccccc2nc(/C=C\c2ccccc2Cl)n1Cc1ccccc1

IC50 (Hexokinase-1): 65.3 µM (inactive) | IC50 (Hexokinase HKDC1): 9.86 µM (active)
Compound: O=S(=O)(Nc1cc(Sc2nc[nH]n2)c(O)c2ccccc12)c1ccc(Cl)cc1

Compound: C[C@@H]1CN([C@@H](C)CO)C(=O)c2cccc(NC(=O)Nc3cccc4ccccc34)c2O[C@H]1CN(C)S(=O)(=O)c1ccc(F)cc1
AC50 (INS1 [5]): 7.41 µM (active) | AC50 (INS1 [6]): 138 µM (active) | AC50 [7]: 77.2 µM (active)

Compound: COc1cc2c(cc1OC)[C@@H]1C(=O)c3ccc4c(c3O[C@@H]1CO2)C[C@H](C(C)C)O4
IC50 (Jurkat): > 80 µM (inactive) | EC50 (cells): > 29.9 µM (inactive) | IC50 [8]: > 80 µM (inactive) | IC50 (Galanin receptor type 3): 0.0154 µM (active)

Compound: COc1cc([C@@H]2c3cc4c(cc3[C@@H](O[C@@H]3O[C@@H]5CO[C@@H](C)O[C@H]5[C@H](O)[C@H]3O)[C@H]3COC(=O)[C@H]23)OCO4)cc(OC)c1O [ETOPOSIDE]
AC50 (HEK293): 0.784 µM (active) | AC50 [9]: 0.4 µM (active)
